Key:
Type in all cases: cell-based
[1] = system: human chronic myelocytic leukemia K562 cells; assay: Growth inhibition test on human chronic myelocytic leukemia K562 cells (WST-1, % viability); settings: test compound 10 μmol/L, 72 hours, cells without test compound = 100%
Procedure: (§1) One thousand cells of human chronic myelocytic leukemia K562 were inoculated into each well of a 96-well microplate (manufactured by Nunc Corp.), and using RPMI1640 medium (culture medium) containing 10% fetal calf serum (FCS), preculturing was performed in a 5% carbon dioxide incubator at 37° C. for 24 hours. A dimethyl sulfoxide (DMSO) solution of each test compound prepared in a concentration of 10 mmol/L was diluted with the culture medium to a final concentration of 10 μmol/L, and the diluted solution was added to each well. The individual wells were further cultured in the 5% carbon dioxide incubator at 37° C. for 72 hours. After completion of the culturing, 10 μL of WST-1 {4-[3-(4-Iodophenyl)-2-(4-nitrophenyl)-2H-5-tetrazolio]-1,3-benzene disulfonate} labeled mixture (manufactured by Roche Diagnostic Corp.) was added to each well, and culturing was performed in the 5% carbon dioxide incubator at 37° C. for 2 hours. Using a microplate spectrophotometer (SpectraMax 340PC384; manufactured by Nihon Molecular Devices), the absorbance of each well was measured at 450 nm and 655 nm. The value obtained by subtracting the absorbance at 450 nm from the absorbance at 655 nm (absorbance difference) was calculated for each well. The value for cells not incorporated with a test compound was designated as 100%, and the value at a well not containing cells was designated as 0%. By comparing these values with the absorbance difference obtained at the well in which each test compound was added, the cell viability (% viability) after treatment with the test compound was calculated.

[2] = system: human multiple myeloma NCI-H929 cells; assay: Growth inhibition test on human multiple myeloma NCI-H929 cells (WST-1, % viability); settings: test compound 10 μmol/L, cells without test compound = 100%
Procedure: as §1, with “Ten” for “One”, “multiple myeloma NCI-H929” for “chronic myelocytic leukemia K562”, “RPMI” for “RPMI1640”, “FCS,” for “fetal calf serum (FCS),”, “DMSO” for “dimethyl sulfoxide (DMSO)”, “WST-1” for “WST-1 {4-[3-(4-Iodophenyl)-2-(4-nitrophenyl)-2H-5-tetrazolio]-1,3-benzene disulfonate}”

[3] = system: human mammary cancer BT-474 cells; assay: Growth inhibition test on human mammary cancer BT-474 cells (WST-1, % viability); settings: test compound 10 μmol/L, cells without test compound = 100%
Procedure: as §1, with “Four” for “One”, “mammary cancer BT-474” for “chronic myelocytic leukemia K562”, “Dulbecco's Modified Eagle's Medium (DMEM)” for “RPMI1640 medium”, “FCS,” for “fetal calf serum (FCS),”, “DMSO” for “dimethyl sulfoxide (DMSO)”, “WST-1” for “WST-1 {4-[3-(4-Iodophenyl)-2-(4-nitrophenyl)-2H-5-tetrazolio]-1,3-benzene disulfonate}”

[4] = system: human prostate cancer 22Rv1 cells; assay: Growth inhibition test on human prostate cancer 22Rv1 cells (WST-1, % viability); settings: test compound 10 μmol/L, 72 hours, cells without test compound = 100%
Procedure: Five thousand cells of human prostate cancer 22Rv1 were inoculated into each well of a 96-well microplate (manufactured by Nunc Corp.), and using RPMI1640 medium (culture medium) containing 10% FCS, preculturing was performed in a 5% carbon dioxide incubator at 37° C. for 24 hours. A DMSO solution of each test compound prepared in a concentration of 10 mmol/L was diluted with the culture medium to a final concentration of 10 μmol/L, and the diluted solution was added to each well. The individual wells were further cultured in the 5% carbon dioxide incubator at 37° C. for 72 hours. After completion of the culturing, 10 μL of WST-1 labeled mixture (manufactured by Roche Diagnostic Corp.) was added to each well, and culturing was performed in the 5% carbon dioxide incubator at 37° C. for 2 hours. Using a microplate spectrophotometer (Model 550; manufactured by Bio-Rad), the absorbance of each well was measured at 450 nm and 655 nm. The value obtained by subtracting the absorbance at 450 nm from the absorbance at 655 nm (absorbance difference) was calculated for each well. The value for cells not incorporated with a test compound was designated as 100%, and the value at a well not containing cells was designated as 0%. By comparing these values with the absorbance difference obtained at the well in which each test compound was added, the cell viability (% viability) after treatment with the test compound was calculated.

Row | SMILES | Viability of tumor cells (% viability), Human chronic myelocytic leukemia K562 cells [1] [%] | Viability of tumor cells (% viability), Human multiple myeloma NCI-H929 cells [2] [%] | Viability of tumor cells (% viability), Human mammary cancer BT-474 cells [3] [%] | Viability of tumor cells (% viability), Human prostate cancer 22Rv1 cells [4] [%]
1 | CCc1c(O)cc(O)c(C(=O)c2ccc(OC)cc2)c1CC(=O)N(CCO)Cc1ccco1 [Compound 69] | 4 | 0 | 13 | 5
2 | CCc1c(O)cc(O)c(C(=O)c2ccc(OCCN3CCOCC3)c(OC)c2)c1CC(=O)N(CCOC)CCOC.Cl [Compound 139] | 4 | 0 | 14 | 5
3 | CCc1c(O)cc(O)c(C(=O)c2ccc(OC(F)F)cc2)c1CC(=O)N(CCO)CCOC [Compound 91] | 4 | 0 | 13 | 5
4 | CCc1c(O)cc(O)c(C(=O)c2ccc(OC)cc2)c1CC(=O)N1CCN(c2ccccc2C#N)CC1 [Compound 17] | 4 | 0 | 10 | 5
